Measured values as given in patent US8481005B2, “Methods to prevent cytotoxicity using N-acetyl-cysteine” (priority 2006, dated 2013).

What was measured:
[1] = system: NFkB knock down oral keratinocytes; test: Cell death in NFkB knock down oral keratinocytes (FS/PI); assay type: cell-based, human; details: overnight
Text: Next, retrovirally-transduced oral keratinocytes were left untreated or treated with HEMA. […] Numbers in each quadrant represent the percentages of cells in that quadrant.
Similar treatments were next performed as described above except that the morphological assessment of oral keratinocytes before and after HEMA treatment was examined.

[2] = system: PBMCs; test: PBMCs treated with HEMA or CDDP, FITC-Annexin V and PI; assay type: cell-based; details: about 18 hours, highest concentration of CDDP, HEMA 0.0164M-0.00164M
Text: The cells were then stained with FITC-Annexin V and PI according to the manufacturer's protocol.

[3] = system: active caspase 3; test: Active caspase 3 staining in PBMCs treated with HEMA or CDDP; assay type: cell-based; details: HEMA 0.0164M
[4] = system: dental pulp stromal cells; test: Cell death in rat dental pulp stromal cells in vitro; assay type: cell-based, Sprague-Dawley rats; details: 0.0328M and 0.00328M HEMA with NAC 20 mM, about 12-14 hours, versus HEMA alone
Text: In a first study using dental pulp stromal cells, dental pulp tissue was extracted from the lower central incisors of 8-12 week old male Sprague-Dawley rats. The lower central incisors were carefully extracted without fracture to avoid periodontal tissue influx into the pulp tissue. The periodontal tissue and other soft tissue remnants were removed from the root part of the teeth, and the incisor tip and root parts were then cut to allow the pulp tissue to be washed out. The extracted tissue was then treated with 0.1% collagenase in 0.25% trypsin EDTA at 37° C. for about 15 minutes. The pellet of released cells was then centrifuged at about 2000 rpm for about 4 minutes and resuspended in DMEM supplemented with 10% FBS, 1% sodium pyruvate, 1% non-essential amino acids and 1% antibiotic-antimycotic. The cells were cultured in a 6 well plate and the media was changed every 3 days.

[5] = system: dental pulp cells; test: Rat incisor restoration with Herculite XR/ProBOND with or without NAC: pulp cell growth and ALP staining; assay type: in vivo, rats; details: restorative materials about 5 hours
Method: In a next experiment, the incisors of nine eight-week-old male rats were prepared with class V preparations near the level of the gingival using a #1 round bur in a high speed dental handpiece.
Again, in this experiment upper and lower incisors were used. Restorative materials were placed on the teeth for about 5 hours. The pulp was extracted and treated with trypsin/EDTA (0.25%) and collagenase (0.02%), washed and resuspended in DMEM containing β-glycerophosphate (10 mM) and ascorbic acid (50 μg/ml) and allowed to grow to confluency. After 14 days of cell growth (media changed every 2-3 days) photographs were taken using an inverted microscope; cells were detached and counted in each experimental group; and wells containing different experimental groups were stained for alkaline phosphatase (ALP).
In vivo studies were performed after tooth restorations to assess the protective effect of NAC on both the viability and function of rat pulp tissue. Eight week old male rats were used for restorations of the incisors. In this study the number of functional cells in cells extracted from the lining of the rat teeth where (A) no restorative materials were administered; (B) restorative materials only were applied; and (C) restorative material in conjunction with NAC were compared. Specifically, nine rats were used and were divided into 3 groups (A, B or C) of 3 rats each. […]

[6] = system: human dental pulp stromal cells; test: Apoptosis in human dental pulp stromal cells, 18 hours; assay type: cell-based; details: HEMA and NAC 20 mM
Method: Pulp was then removed, minced and treated with trypsin/EDTA and collagenase to release the dental pulp stromal cells. […] Next the cells were analyzed for apoptosis using FTIC-Annexin V and PI.

[7] = system: odontoblasts; test: Cell viability of rat odontoblasts; assay type: cell-based; details: 0.0164M-0.00164M HEMA with NAC 20 mM, about 12-14 hours, versus HEMA alone
Method: Differentiation was induced by the addition of about 10 mM of β-glycerophosphate and about 50 μg/ml of ascorbic acid.

[8] = system: gingival cells; test: PI/FITC-Annexin V cell survival of rat gingival cells; assay type: cell-based; details: 0.0164M-0.00164M HEMA with NAC 20 mM, about 12-14 hours, versus HEMA alone
Method: Rat gingival cells were obtained from 8 week old male rats and cultured in DMEM supplemented with 10% FBS, 1% antibiotic-antimycotic, 1% sodium pyruvate and 1% non-essential amino acids. […] Cell survival was measured by PI/FITC-Annexin V staining as described previously.

[9] = system: IL-2 treated PBMCs; test: Tritiated thymidine proliferation of IL-2 treated PBMCs; assay type: cell-based; details: HEMA and NAC, 24 hours with tritiated thymidine
Method: Tritiated thymidine was added to the cells and after 24 hours of incubation assessed for proliferation.

[10] = system: osteopontin (OPN) and osteocalcin (OCN); test: RT-PCR for osteopontin and osteocalcin in rat dental pulp stromal cells; assay type: cell-based; details: media containing ascorbic acid and β-glycerophosphate
Text: Rat dental pulp stromal cells were again cultured under 3 different conditions: (1) DMEM alone (undifferentiated); (2) DMEM+β-glycerophosphate+ascorbic acid (differentiated−Dex); and (3) DMEM+β-glycerophosphate+ascorbic acid+dexamethasone (differentiated+Dex). The differentiation of the cells under these different culture conditions was then confirmed by an RT-PCR to assay for genes which are induced during differentiation (osteopontin and osteocalcin). Osteopontin (OPN), is an early osteoblastic marker and osteocalcin (OCN) a late stage marker.
RNA was extracted from the cells and PCR was again performed for OPN and OCN.

[11] = system: dental pulp stromal cells; test: Rat tooth bleaching: dental pulp stromal cell growth, count and ALP; assay type: in vivo, rats; details: bleaching agent 5 hours, without or with NAC 20 mM painted 5 minutes; 12-21 days
Method: Similar studies were also carried out using dental pulp stromal cells. Rats were divided into three groups: (1) Control (no bleach); (2) Bleach; and (3) Bleach and NAC. In these studies, NAC was initially painted on to the teeth (20 mM concentration) for 5 minutes and then bleaching agent applied for 5 hours, after which the teeth were extracted, and pulp was obtained from each group. Pulp was treated with trypsin/EDTA (0.25%) and collagenase (0.02%) to obtain single cell suspension of the cells, washed and resuspended in DMEM containing β-glycerophosphate (10 mM) and ascorbic acid (50 μg/ml), and allowed to grow to confluency, before either photographs were taken (12-21 days; FIG. 47); cells were counted (21 days; FIG. 48); or ALP staining was performed (21 days; FIG. 49). […] Whitening Strips

[12] = system: human dental pulp stromal cells; test: Extracted human teeth restored with composite resin with or without NAC: pulp cell growth; details: restorations left 5 hours; 14 days of incubation
Method: Three freshly extracted human teeth were obtained. Cavity preparations were performed on 2 freshly extracted third molars before restoration. One molar was left untouched and used as control. Specifically, tooth #1 was left untreated; tooth #2 was restored with composite resin alone; and tooth #3 was restored with composite resin after application of NAC. […] Single cell suspensions of control and each restored tooth were then cultured in the presence of β-glycerophosphate (10 mM) and ascorbic acid (50 μg/ml) and microscopic pictures taken after 14 days of incubation for growth.

Row | Compound | cell death (FS, PI staining) [1] | cells remained both PI and Annexin V negative [2] | increase in active caspase 3 staining compared to the CDDP treated cells [3] | active caspase 3 staining ([3]; CDDP) [%] | viable cells after HEMA exposure [4] | pulp cell number after restoration ([5]; 14 days of cell growth) | ALP staining of pulp cells after restoration ([5]; composite resin with or without NAC) | inhibition of HEMA-mediated cell death [6] | percentage of viable cells [7] | viable cells after HEMA exposure [8] | proliferation [9] | differentiation markers OPN and OCN [10] | cytotoxicity and cell death of dental pulp stromal cells [11] | growth of pulp cells [12]
1 | C=C(C)C(=O)OCCO [HEMA, hydroxyethyl methacrylate] | induces significant cell death | less than 50% | about 2 fold | 42 | – | – | – | – | – | – | – | – | – | –
2 | CC(=O)N[C@@H](CS)C(=O)O [NAC, N-acetyl-cysteine] | – | – | – | – | higher number of viable cells | can help to prevent the cell loss | can be ameliorated | significant inhibition of HEMA-mediated cell death at all HEMA concentrations | percentage of viable cells increases | higher number of viable cells | can prevent HEMA-induced loss of proliferation | express higher levels of OPN and OCN | could be reversed | growth and expansion of the cells resulted
